Laboratory results taken from patent US20230301300A1, “HERBICIDAL COMPOSITIONS” (SYNGENTA CROP PROTECTION AG, priority 2020, published 2023).

Tests used:
Type in all cases: in vivo
[1] = test system: Ipomoea hederacea (IPOHE); experiment: B1 Post-Emergence Efficacy - Test 1; conditions: 1000 g/ha, after 13 days, five point scale
Outline: (§1)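 Post-emergence spray, 1000 g/ha, acetone/water 50:50 + 0.5% Tween 20, on plants 8 d after sowing in soil pots. Glasshouse 24/16° C., 14 h light, 65% humidity, watered twice daily. % damage at 13 d, five-point score.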

Lolium perenne (LOLPE) = experiment: B1 Post-Emergence Efficacy - Test 1; conditions: 1000 g/ha, after 13 days, five point scale
Outline: as §1

[2] = test system: Amaranthus retoflexus (AMARE); experiment: B1 Post-Emergence Efficacy - Test 1; conditions: 1000 g/ha, after 13 days, five point scale
Outline: as §1

Solanum nigrum (SOLNI) = experiment: B1 Post-Emergence Efficacy - Test 1; conditions: 1000 g/ha, after 13 days, five point scale
Outline: as §1

[3] = test system: Echinochloa crus-galli (ECHCG); experiment: B1 Post-Emergence Efficacy - Test 1; conditions: 1000 g/ha, after 13 days, five point scale
Outline: as §1

Setaria faberi (SETFA) [4] = experiment: B1 Post-Emergence Efficacy - Test 1; conditions: 1000 g/ha, after 13 days, five point scale
Outline: as §1

[5] = test system: Echinochloa crus galli (ECHCG); experiment: B2 Post-Emergence Efficacy - Test 2; conditions: 15 days after application, 0=no damage, 100=total kill
Outline: (§2)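 Post-emergence spray, 12-day-old potted plants; IF50 formulation in water + Genapol X080 0.2% v/v. Glasshouse 24/18 or 20/16 °C, 16 h light, 65% RH, watered twice daily. Rating at 15 DAA, 0 = no damage, 100 = total kill.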

[6] = test system: Panicum miliaceum (PANMI); experiment: B2 Post-Emergence Efficacy - Test 2; conditions: 15 days after application, 0=no damage, 100=total kill
Outline: as §2

Galium aparine (GALAP) = experiment: B2 Post-Emergence Efficacy - Test 2; conditions: 15 days after application, 0-100 scale
Outline: as §2

Orysa sativa (ORYSA) = experiment: B2 Post-Emergence Efficacy - Test 2; conditions: 15 days after application; for Herbicidal activity ORYSA: 0-100 scale; for Herbicidal activity on a 0-100 scale, ORYSA: 0=no damage, 100=total kill
Outline: as §2

Eleisine indica (ELEIN) = experiment: B2 Post-Emergence Efficacy - Test 2; conditions: 15 days after application, 0=no damage, 100=total kill
Outline: as §2

[7] = test system: Euphorbia hetrophylla (EPHHL); experiment: B2 Post-Emergence Efficacy - Test 2; conditions: 15 days after application, 0-100 scale
Outline: as §2

Stellaria media (STEME) = experiment: B2 Post-Emergence Efficacy - Test 2; conditions: 15 days after application, 0-100 scale
Outline: as §2

Zea mays (ZEAMX) = experiment: B2 Post-Emergence Efficacy - Test 2; conditions: 15 days after application; for Herbicidal activity ZEAMX: 0-100 scale; for Herbicidal activity on a 0-100 scale, ZEAMX: 0=no damage, 100=total kill
Outline: as §2

Veronica persica (VERPE) = experiment: B2 Post-Emergence Efficacy - Test 2; conditions: 15 days after application, 0-100 scale
Outline: as §2

[8] = test system: Chenopodium album (CHEAL); experiment: B2 Post-Emergence Efficacy - Test 2; conditions: 15 days after application, 0-100 scale
Outline: as §2

Setaria faberi (SETFA) [9] = experiment: B2 Post-Emergence Efficacy - Test 2; conditions: 15 days after application, 0=no damage, 100=total kill
Outline: as §2

Cc1nn(C)c(=O)c(-c2c(F)ccc(Cl)c2CCc2ccc(F)cc2)c1OC(=O)C(C)C [Compound 1.125, [5-[3-chloro-6-fluoro-2-[2-(4-fluorophenyl)ethyl]phenyl]-1,3-dimethyl-6-oxo-pyridazin-4-yl] 2-methylpropanoate]
percentage damage caused to the plant, IPOHE [1]: 5 (5=80-100%)
percentage damage caused to the plant, LOLPE (Lolium perenne (LOLPE)): 5 (5=80-100%)
percentage damage caused to the plant, AMARE [2]: 5 (5=80-100%)
percentage damage caused to the plant, SOLNI (Solanum nigrum (SOLNI)): 5 (5=80-100%)
percentage damage caused to the plant, ECHCG [3]: 5 (5=80-100%)
percentage damage caused to the plant, SETFA (Setaria faberi (SETFA) [4]): 5 (5=80-100%)
Herbicidal activity on a 0-100 scale, ECHCG ([5]; 15 g/Ha): 70
Herbicidal activity on a 0-100 scale, ECHCG ([5]; 30 g/Ha): 80
Herbicidal activity on a 0-100 scale, ECHCG ([5]; 60 g/Ha): 80
Herbicidal activity on a 0-100 scale, ECHCG ([5]; 125 g/Ha): 80
Herbicidal activity on a 0-100 scale, ECHCG ([5]; 250 g/Ha): 90
Herbicidal activity on a 0-100 scale, ECHCG ([5]; 500 g/Ha): 100
Herbicidal activity on a 0-100 scale, PANMI ([6]; 15 g/Ha): 20
Herbicidal activity on a 0-100 scale, PANMI ([6]; 30 g/Ha): 30
Herbicidal activity on a 0-100 scale, PANMI ([6]; 60 g/Ha): 50
Herbicidal activity on a 0-100 scale, PANMI ([6]; 125 g/Ha): 50
Herbicidal activity on a 0-100 scale, PANMI ([6]; 250 g/Ha): 70
Herbicidal activity on a 0-100 scale, PANMI ([6]; 500 g/Ha): 80
Herbicidal activity GALAP (Galium aparine (GALAP); 30 g/Ha): 20
Herbicidal activity GALAP (Galium aparine (GALAP); 60 g/Ha): 20
Herbicidal activity GALAP (Galium aparine (GALAP); 125 g/Ha): 30
Herbicidal activity GALAP (Galium aparine (GALAP); 250 g/Ha): 40
Herbicidal activity GALAP (Galium aparine (GALAP); 500 g/Ha): 70
Herbicidal activity ORYSA (Orysa sativa (ORYSA); 15 g/Ha): 0
Herbicidal activity on a 0-100 scale, ORYSA (Orysa sativa (ORYSA); 15 g/Ha): 0
Herbicidal activity ORYSA (Orysa sativa (ORYSA); 30 g/Ha): 0
Herbicidal activity on a 0-100 scale, ORYSA (Orysa sativa (ORYSA); 30 g/Ha): 0
Herbicidal activity ORYSA (Orysa sativa (ORYSA); 60 g/Ha): 0
Herbicidal activity on a 0-100 scale, ORYSA (Orysa sativa (ORYSA); 60 g/Ha): 0
Herbicidal activity ORYSA (Orysa sativa (ORYSA); 125 g/Ha): 0
Herbicidal activity on a 0-100 scale, ORYSA (Orysa sativa (ORYSA); 125 g/Ha): 0
Herbicidal activity ORYSA (Orysa sativa (ORYSA); 250 g/Ha): 0
Herbicidal activity on a 0-100 scale, ORYSA (Orysa sativa (ORYSA); 250 g/Ha): 0
Herbicidal activity ORYSA (Orysa sativa (ORYSA); 500 g/Ha): 0
Herbicidal activity on a 0-100 scale, ORYSA (Orysa sativa (ORYSA); 500 g/Ha): 0
Herbicidal activity on a 0-100 scale, ELEIN (Eleisine indica (ELEIN); 15 g/Ha): 40
Herbicidal activity on a 0-100 scale, ELEIN (Eleisine indica (ELEIN); 30 g/Ha): 40
Herbicidal activity on a 0-100 scale, ELEIN (Eleisine indica (ELEIN); 60 g/Ha): 70
Herbicidal activity on a 0-100 scale, ELEIN (Eleisine indica (ELEIN); 125 g/Ha): 70
Herbicidal activity on a 0-100 scale, ELEIN (Eleisine indica (ELEIN); 250 g/Ha): 80
Herbicidal activity on a 0-100 scale, ELEIN (Eleisine indica (ELEIN); 500 g/Ha): 80
Herbicidal activity EPHHL ([7]; 15 g/Ha): 90
Herbicidal activity EPHHL ([7]; 30 g/Ha): 90
Herbicidal activity EPHHL ([7]; 60 g/Ha): 100
Herbicidal activity EPHHL ([7]; 125 g/Ha): 100
Herbicidal activity EPHHL ([7]; 250 g/Ha): 100
Herbicidal activity EPHHL ([7]; 500 g/Ha): 100
Herbicidal activity STEME (Stellaria media (STEME); 15 g/Ha): 90
Herbicidal activity STEME (Stellaria media (STEME); 30 g/Ha): 90
Herbicidal activity STEME (Stellaria media (STEME); 60 g/Ha): 90
Herbicidal activity STEME (Stellaria media (STEME); 125 g/Ha): 90
Herbicidal activity STEME (Stellaria media (STEME); 250 g/Ha): 90
Herbicidal activity STEME (Stellaria media (STEME); 500 g/Ha): 90
Herbicidal activity ZEAMX (Zea mays (ZEAMX); 15 g/Ha): 0
Herbicidal activity on a 0-100 scale, ZEAMX (Zea mays (ZEAMX); 15 g/Ha): 0
Herbicidal activity ZEAMX (Zea mays (ZEAMX); 30 g/Ha): 20
Herbicidal activity on a 0-100 scale, ZEAMX (Zea mays (ZEAMX); 30 g/Ha): 20
Herbicidal activity ZEAMX (Zea mays (ZEAMX); 60 g/Ha): 30
Herbicidal activity on a 0-100 scale, ZEAMX (Zea mays (ZEAMX); 60 g/Ha): 30
Herbicidal activity ZEAMX (Zea mays (ZEAMX); 125 g/Ha): 20
Herbicidal activity on a 0-100 scale, ZEAMX (Zea mays (ZEAMX); 125 g/Ha): 20
Herbicidal activity ZEAMX (Zea mays (ZEAMX); 250 g/Ha): 40
Herbicidal activity on a 0-100 scale, ZEAMX (Zea mays (ZEAMX); 250 g/Ha): 40
Herbicidal activity ZEAMX (Zea mays (ZEAMX); 500 g/Ha): 70
Herbicidal activity on a 0-100 scale, ZEAMX (Zea mays (ZEAMX); 500 g/Ha): 70
Herbicidal activity VERPE (Veronica persica (VERPE); 15 g/Ha): 70
Herbicidal activity VERPE (Veronica persica (VERPE); 30 g/Ha): 70
Herbicidal activity VERPE (Veronica persica (VERPE); 60 g/Ha): 70
Herbicidal activity VERPE (Veronica persica (VERPE); 125 g/Ha): 80
Herbicidal activity VERPE (Veronica persica (VERPE); 250 g/Ha): 80
Herbicidal activity VERPE (Veronica persica (VERPE); 500 g/Ha): 90
Herbicidal activity CHEAL ([8]; 15 g/Ha): 90
Herbicidal activity CHEAL ([8]; 30 g/Ha): 90
Herbicidal activity CHEAL ([8]; 60 g/Ha): 90
Herbicidal activity CHEAL ([8]; 125 g/Ha): 90
Herbicidal activity CHEAL ([8]; 250 g/Ha): 90
Herbicidal activity CHEAL ([8]; 500 g/Ha): 90
Herbicidal activity on a 0-100 scale, SETFA (Setaria faberi (SETFA) [9]; 15 g/Ha): 0
Herbicidal activity on a 0-100 scale, SETFA (Setaria faberi (SETFA) [9]; 30 g/Ha): 10
Herbicidal activity on a 0-100 scale, SETFA (Setaria faberi (SETFA) [9]; 60 g/Ha): 20
Herbicidal activity on a 0-100 scale, SETFA (Setaria faberi (SETFA) [9]; 125 g/Ha): 20
Herbicidal activity on a 0-100 scale, SETFA (Setaria faberi (SETFA) [9]; 250 g/Ha): 20
Herbicidal activity on a 0-100 scale, SETFA (Setaria faberi (SETFA) [9]; 500 g/Ha): 100
